Source: PubChem BioAssay AID330 (DTP/NCI, 2004)
Where “and” joins values, the source holds several entries; their conditions need not be identical. Identical values can stand only once. Toxic doses and inconclusive results are not listed. How the source made its calls: active means survival T/C of 150% or more; inactive means T/C below 125% in these data.

Tested on: P388 leukemia ip, CD2F1 mice, survival T/C
Assay: NCI In Vivo Anticancer Drug Screen. Data for tumor model P388 Leukemia (intraperitoneal) in CD2F1 (CDF1) mice
Details: endpoint: median survival time, higher = longer survival
In short: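 Mice carrying the transplanted tumor received test compound or vehicle. Survival was recorded in each group, and the value is the treated-group measurement divided by that of the vehicle-treated control group.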

[1] = dose: 50.0 mg/kg/injection, schedule: Q01DX005 (ip), vehicle: Klucel (hydroxypropylcellulose) (HPC)
[2] = dose: 100.0 mg/kg/injection, schedule: Q01DX005 (ip), vehicle: Klucel (hydroxypropylcellulose) (HPC)
[3] = dose: 200.0 mg/kg/injection, schedule: Q01DX005 (ip), vehicle: Klucel (hydroxypropylcellulose) (HPC)
[4] = dose: 25.0 mg/kg/injection, schedule: Q01DX009 (ip), vehicle: saline with Tween-80
[5] = dose: 50.0 mg/kg/injection, schedule: Q01DX009 (ip), vehicle: saline with Tween-80
[6] = dose: 200.0 mg/kg/injection, schedule: Q01DX009 (ip), vehicle: saline with Tween-80
[7] = dose: 60.0 mg/kg/injection, schedule: Q01DX005 (ip), vehicle: saline with Tween-80
[8] = dose: 120.0 mg/kg/injection, schedule: Q01DX005 (ip), vehicle: saline with Tween-80
[9] = dose: 240.0 mg/kg/injection, schedule: Q01DX005 (ip), vehicle: saline with Tween-80
[10] = dose: 100.0 mg/kg/injection, schedule: Q01DX009 (ip), vehicle: saline with Tween-80
[11] = dose: 100.0 mg/kg/injection, schedule: Q04DX003 (ip), vehicle: saline with Tween-80

Measured: T/C

C=C1C(=O)N2CCc3c([nH]c4ccccc34)[C@H]2C[C@@H]1CO
inactive: [1] 95 % of control | [2] 88 % of control | [3] 96 % of control

CCC1C(=O)OCCOCCOCCOCCOC1=O
inactive: dose: 100.0 mg/kg/injection, schedule: Q04DX003 (ip), vehicle: Klucel (hydroxypropylcellulose) (HPC) 106 % of control | dose: 200.0 mg/kg/injection, schedule: Q04DX003 (ip), vehicle: Klucel (hydroxypropylcellulose) (HPC) 100 % of control | dose: 400.0 mg/kg/injection, schedule: Q04DX003 (ip), vehicle: Klucel (hydroxypropylcellulose) (HPC) 107 % of control

S=C1Nc2ccccc2C2CC=NN12 (stereo not given)
inactive: dose: 12.5 mg/kg/injection, schedule: Q01DX009 (ip), vehicle: saline with Tween-80 91 % of control | [4] 112 % of control | [5] 88 % of control and 96 % of control | [6] 86 % of control

COCc1cnc2nc(N)nc(N)c2n1
inactive: dose: 0.39 mg/kg/injection, schedule: Q01DX009 (ip), vehicle: distilled water + Tween-80 99 % of control | dose: 0.78 mg/kg/injection, schedule: Q01DX009 (ip), vehicle: distilled water + Tween-80 99 % of control | dose: 1.56 mg/kg/injection, schedule: Q01DX009 (ip), vehicle: distilled water + Tween-80 104 % of control | dose: 3.13 mg/kg/injection, schedule: Q01DX009 (ip), vehicle: distilled water + Tween-80 110 % of control

NCc1ccc(Cl)c(Cl)c1
inactive: dose: 6.25 mg/kg/injection, schedule: Q01DX009 (ip), vehicle: saline 110 % of control and 116 % of control | dose: 12.5 mg/kg/injection, schedule: Q01DX009 (ip), vehicle: saline 104 % of control and 107 % of control | dose: 25.0 mg/kg/injection, schedule: Q01DX009 (ip), vehicle: saline 100 % of control and 103 % of control | dose: 50.0 mg/kg/injection, schedule: Q01DX009 (ip), vehicle: saline 101 % of control and 104 % of control | dose: 100.0 mg/kg/injection, schedule: Q01DX009 (ip), vehicle: saline 103 % of control and 109 % of control

Cc1ccc2nc(C)cc(N=[N+]=[N-])c2c1
inactive: [7] 95 % of control | [8] 89 % of control

Clc1nccc2c1ncn2[Te]n1cnc2c(Cl)nccc21
inactive: dose: 12.5 mg/kg/injection, schedule: Q04DX002 (ip), vehicle: saline 105 % of control | dose: 25.0 mg/kg/injection, schedule: Q04DX002 (ip), vehicle: saline 103 % of control

COc1cc(C(c2cc3c(cc2OC(C)=O)OCO3)C(C(C)=O)C(C)=O)cc(OC)c1OC (stereo not given)
inactive: [7] 106 % of control | [8] 98 % of control | [9] 121 % of control

Cc1c(C2Nc3ccccc3C2C)[nH]c2ccccc12 (stereo not given)
inactive: dose: 50.0 mg/kg/injection, schedule: Q01DX005 (ip), vehicle: saline with Tween-80 104 % of control | dose: 100.0 mg/kg/injection, schedule: Q01DX005 (ip), vehicle: saline with Tween-80 100 % of control | dose: 200.0 mg/kg/injection, schedule: Q01DX005 (ip), vehicle: saline with Tween-80 103 % of control

O=NNc1nccnn1
inactive: dose: 3.12 mg/kg/injection, schedule: Q01DX009 (ip), vehicle: water 105 % of control | dose: 6.25 mg/kg/injection, schedule: Q01DX009 (ip), vehicle: water 107 % of control | dose: 12.5 mg/kg/injection, schedule: Q01DX009 (ip), vehicle: water 105 % of control | dose: 25.0 mg/kg/injection, schedule: Q01DX009 (ip), vehicle: water 108 % of control and 111 % of control | dose: 50.0 mg/kg/injection, schedule: Q01DX009 (ip), vehicle: water 114 % of control and 118 % of control | dose: 100.0 mg/kg/injection, schedule: Q01DX009 (ip), vehicle: water 120 % of control | dose: 200.0 mg/kg/injection, schedule: Q01DX009 (ip), vehicle: water 119 % of control

O=C1NN2CCN=C2c2ccccc21
inactive: [7] 100 % of control | [8] 104 % of control | [9] 103 % of control

O=S(=O)(Nc1ccc(Br)cc1)c1ccccc1
inactive: [10] 100 % of control | [11] 100 % of control | [6] 90 % of control | dose: 200.0 mg/kg/injection, schedule: Q04DX003 (ip), vehicle: saline with Tween-80 95 % of control | dose: 400.0 mg/kg/injection, schedule: Q01DX009 (ip), vehicle: saline with Tween-80 100 % of control | dose: 400.0 mg/kg/injection, schedule: Q04DX003 (ip), vehicle: saline with Tween-80 91 % of control

O=Cc1ccccc1/C=C/C(=O)/C=C/c1ccccc1C=O
inactive: dose: 12.5 mg/kg/injection, schedule: Q01DX005 (ip), vehicle: Klucel (hydroxypropylcellulose) (HPC) 105 % of control | dose: 25.0 mg/kg/injection, schedule: Q01DX005 (ip), vehicle: Klucel (hydroxypropylcellulose) (HPC) 105 % of control | [1] 107 % of control and 110 % of control

CC1=C(C(C)(C)C)C(=O)c2ccccc2C1=O
inactive: [1] 100 % of control | [2] 103 % of control | [3] 107 % of control

CCN(CC)CC(C)(O)CNc1cc(OC)cc2cccnc12 (stereo not given)
inactive: dose: 12.5 mg/kg/injection, schedule: Q01DX005 (ip), vehicle: saline 97 % of control | dose: 25.0 mg/kg/injection, schedule: Q01DX005 (ip), vehicle: saline 101 % of control | dose: 50.0 mg/kg/injection, schedule: Q01DX005 (ip), vehicle: saline 93 % of control and 94 % of control

O=C1C2=C(Nc3cc([N+](=O)[O-])ccc3N2)OC1c1c2ccccc2cc2ccccc12 (stereo not given)
inactive: dose: 60.0 mg/kg/injection, schedule: Q01DX005 (ip), vehicle: Klucel (hydroxypropylcellulose) (HPC) 94 % of control | dose: 120.0 mg/kg/injection, schedule: Q01DX005 (ip), vehicle: Klucel (hydroxypropylcellulose) (HPC) 88 % of control

CCCc1c(Cl)nc(Cl)nc1Cl
inactive: [4] 104 % of control | dose: 25.0 mg/kg/injection, schedule: Q04DX003 (ip), vehicle: saline with Tween-80 113 % of control | [5] 118 % of control | dose: 50.0 mg/kg/injection, schedule: Q04DX003 (ip), vehicle: saline with Tween-80 121 % of control | dose: 66.0 mg/kg/injection, schedule: Q01DX009 (ip), vehicle: saline with Tween-80 116 % of control | [10] 100 % of control | [11] 113 % of control

CN(C)CCC=C1c2ccccc2C(C)(C)c2ccccc21
inactive: [1] 98 % of control | [2] 97 % of control

COC1=C(OC)C(=O)C(N2CCCCC2)=C(CO)C1=O
inactive: dose: 60.0 mg/kg/injection, schedule: Q01DX005 (ip), vehicle: saline + Tween-80 + alcohol 88 % of control | dose: 120.0 mg/kg/injection, schedule: Q01DX005 (ip), vehicle: saline + Tween-80 + alcohol 94 % of control | dose: 240.0 mg/kg/injection, schedule: Q01DX005 (ip), vehicle: saline + Tween-80 + alcohol 107 % of control

c1cnc2nc3c4ccccc4c4ccccc4c3nc2c1
inactive: [5] 104 % of control and 94 % of control | [10] 104 % of control and 122 % of control and 93 % of control | [6] 101 % of control and 110 % of control and 86 % of control

O=C1C2OC2C(=O)C2C3C=CC(C3)C12 (stereo not given)
inactive: dose: 75.0 mg/kg/injection, schedule: Q04DX002 (ip), vehicle: saline with Tween-80 99 % of control | dose: 150.0 mg/kg/injection, schedule: Q04DX002 (ip), vehicle: saline with Tween-80 96 % of control | dose: 300.0 mg/kg/injection, schedule: Q04DX002 (ip), vehicle: saline with Tween-80 95 % of control

Cc1ccc(S(=O)(=O)CC(=O)CC(=O)C(=O)Nc2cc(C)ccc2C)cc1
inactive: [7] 105 % of control | [8] 108 % of control | [9] 106 % of control

Oc1ccc2c(c1O)/C(=C/C=NCC1(O)OCC(O)C(O)C1O)C=N2 (stereo not given)
inactive: dose: 60.0 mg/kg/injection, schedule: Q01DX005 (ip), vehicle: saline 101 % of control | dose: 120.0 mg/kg/injection, schedule: Q01DX005 (ip), vehicle: saline 98 % of control | dose: 240.0 mg/kg/injection, schedule: Q01DX005 (ip), vehicle: saline 101 % of control
